Results: US9730940B2, “Purine inhibitors of human phosphatidylinositol 3-kinase delta” (priority 2012, dated 2017)

Molecular target: PI3K-alpha (Homo sapiens (Human), UniProt P42336)
Experiment: HTRF PI3K biochemical assay, alpha isoform
Details: ratio PI3K-alpha IC50 value/PI3K-delta IC50 value

Chain of PI3K-alpha (P42336 whole entry, looked up, canonical isoform): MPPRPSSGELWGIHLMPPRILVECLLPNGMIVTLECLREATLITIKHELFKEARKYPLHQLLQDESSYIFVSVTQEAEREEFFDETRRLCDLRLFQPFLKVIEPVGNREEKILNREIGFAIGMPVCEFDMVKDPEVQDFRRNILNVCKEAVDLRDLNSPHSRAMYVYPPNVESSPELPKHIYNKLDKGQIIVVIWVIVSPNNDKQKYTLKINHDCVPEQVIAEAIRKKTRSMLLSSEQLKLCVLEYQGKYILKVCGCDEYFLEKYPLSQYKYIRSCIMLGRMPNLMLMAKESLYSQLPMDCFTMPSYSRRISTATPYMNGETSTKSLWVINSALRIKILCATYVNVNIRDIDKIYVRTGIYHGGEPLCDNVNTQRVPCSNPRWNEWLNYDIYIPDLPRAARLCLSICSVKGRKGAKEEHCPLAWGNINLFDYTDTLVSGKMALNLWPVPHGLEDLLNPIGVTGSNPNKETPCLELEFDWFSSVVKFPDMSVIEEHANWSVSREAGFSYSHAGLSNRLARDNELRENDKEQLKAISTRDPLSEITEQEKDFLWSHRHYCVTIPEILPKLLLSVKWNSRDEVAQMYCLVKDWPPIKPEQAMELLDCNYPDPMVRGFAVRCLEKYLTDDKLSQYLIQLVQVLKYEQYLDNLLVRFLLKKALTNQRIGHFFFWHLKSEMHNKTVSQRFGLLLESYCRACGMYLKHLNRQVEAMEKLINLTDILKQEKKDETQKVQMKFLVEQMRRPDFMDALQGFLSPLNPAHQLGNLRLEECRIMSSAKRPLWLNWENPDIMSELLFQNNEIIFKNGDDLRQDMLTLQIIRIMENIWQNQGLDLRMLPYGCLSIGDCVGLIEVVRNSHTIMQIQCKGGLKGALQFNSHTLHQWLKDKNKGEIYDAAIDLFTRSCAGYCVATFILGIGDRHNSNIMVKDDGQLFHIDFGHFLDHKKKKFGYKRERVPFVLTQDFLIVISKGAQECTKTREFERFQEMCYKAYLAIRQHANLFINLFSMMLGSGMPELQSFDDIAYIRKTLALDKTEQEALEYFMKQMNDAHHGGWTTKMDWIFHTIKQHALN
Chain of PI3K-alpha (P27986 whole entry partner, looked up, canonical isoform): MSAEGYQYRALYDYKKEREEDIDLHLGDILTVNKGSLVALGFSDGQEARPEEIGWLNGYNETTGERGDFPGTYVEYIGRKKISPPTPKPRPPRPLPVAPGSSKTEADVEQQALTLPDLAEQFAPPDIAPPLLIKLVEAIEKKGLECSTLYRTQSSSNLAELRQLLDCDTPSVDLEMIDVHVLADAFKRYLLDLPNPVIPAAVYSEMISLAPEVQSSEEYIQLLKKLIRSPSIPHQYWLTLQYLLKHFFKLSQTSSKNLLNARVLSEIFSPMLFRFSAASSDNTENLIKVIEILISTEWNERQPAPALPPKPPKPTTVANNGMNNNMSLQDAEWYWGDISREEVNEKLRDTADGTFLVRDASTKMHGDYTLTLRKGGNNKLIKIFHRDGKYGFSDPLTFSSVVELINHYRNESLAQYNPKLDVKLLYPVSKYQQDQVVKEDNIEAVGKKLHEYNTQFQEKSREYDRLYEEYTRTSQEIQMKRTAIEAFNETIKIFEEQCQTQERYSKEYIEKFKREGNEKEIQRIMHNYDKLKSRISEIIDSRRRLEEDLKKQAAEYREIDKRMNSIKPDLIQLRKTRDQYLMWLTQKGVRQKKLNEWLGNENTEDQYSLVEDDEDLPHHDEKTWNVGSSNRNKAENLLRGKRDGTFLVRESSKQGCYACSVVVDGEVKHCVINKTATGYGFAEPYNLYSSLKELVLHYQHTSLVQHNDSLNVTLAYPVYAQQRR

Compound	Relative Selectivity versus PI3Kalpha
CCC(=O)N1CC[C@H](Oc2ncnc3c2nc(-c2cnn(CC)c2C)n3CC)C1 [Compound 2-93, (S)-1-(3-((9-ethyl-8-(1-ethyl-5-methyl-1H-pyrazol-4-yl)-9H-purin-6-yl)oxy)pyrrolidin-1-yl)propan-1-one]	>10
CCC(=O)N1CC[C@H](Oc2ncnc3c2nc(-c2cnc(OC)c(C)c2)n3C)C1 [Compound 2-94, (S)-1-(3-((8-(6-methoxy-5-methylpyridin-3-yl)-9-methyl-9H-purin-6-yl)oxy)pyrrolidin-1-yl)propan-1-one]	>10
CCC(=O)N1CC[C@H](Oc2ncnc3c2nc(-c2cnc(C(C)(C)C)s2)n3CC)C1 [Compound 2-95, (S)-1-(3-((8-(2-(tert-butyl)thiazol-5-yl)-9-ethyl-9H-purin-6-yl)oxy)pyrrolidin-1-yl)propan-1-one]	>10
CCC(=O)N1CC[C@H](Oc2ncnc3c2nc(-c2cnc(C(C)(C)C)s2)n3C)C1 [Compound 2-96, (S)-1-(3-((8-(2-(tert-butyl)thiazol-5-yl)-9-methyl-9H-purin-6-yl)oxy)pyrrolidin-1-yl)propan-1-one]	>10
CCC(=O)N1CC[C@H](Oc2ncnc3c2nc(-c2cnn(CC)c2C)n3C2CC2)C1 [Compound 2-97, (S)-1-(3-((9-cyclopropyl-8-(1-ethyl-5-methyl-1H-pyrazol-4-yl)-9H-purin-6-yl)oxy)pyrrolidin-1-yl)propan-1-one]	>10
CCn1c(-c2cnc(C)nc2)nc2c(O[C@H]3CCN(C(=O)C4CC4)[C@@H]3C)ncnc21 [Compound 2-98, 6-{[(2R,3S)-1-(cyclopropylcarbonyl)-2-methylpyrrolidin-3-yl]oxy}-9-ethyl-8-(2-methylpyrimidin-5-yl)-9H-purine]	>10
CCn1c(-c2cnc(C)nc2)nc2c(OC3CN(C(=O)C4CC4)CC3(F)F)ncnc21 (centres unmarked) [Compound 2-99, 6-{[1-(cyclopropylcarbonyl)-4,4-difluoropyrrolidin-3-yl]oxy}-9-ethyl-8-(2-methylpyrimidin-5-yl)-9H-purine]	>10
CCn1c(-c2cnc(C)nc2)nc2c(O[C@H]3CCN(C(=O)[C@@H]4CCC[C@H]4N)C3)ncnc21 [Compound 2-101, (1R,2R)-2-{[(3S)-3-{[9-ethyl-8-(2-methylpyrimidin-5-yl)-9H-purin-6-yl]oxy}pyrrolidin-1-yl]carbonyl}cyclopentanamine]	>10
CCn1c(-c2cnc(C)nc2)nc2c(O[C@H]3CCN(C(=O)C4CNC4)C3)ncnc21 [Compound 2-102, 6-{[(3S)-1-(azetidin-3-ylcarbonyl)pyrrolidin-3-yl]oxy}-9-ethyl-8-(2-methylpyrimidin-5-yl)-9H-purine]	>10
CCn1c(-c2cnc(C)nc2)nc2c(O[C@H]3CCN(C(=O)[C@H]4CCC[C@H]4N)C3)ncnc21 [Compound 2-103, (1R,2S)-2-{[(3S)-3-{[9-ethyl-8-(2-methylpyrimidin-5-yl)-9H-purin-6-yl]oxy}pyrrolidin-1-yl]carbonyl}cyclopentanamine]	>10
CCn1c(-c2cnc(C)nc2)nc2c(O[C@H]3CCN(C(=O)[C@@H]4CN5CC[C@H]4C5)C3)ncnc21 [Compound 2-104, 6-({(3S)-1-[(3S,4R)-1-azabicyclo[2.2.1]hept-3-ylcarbonyl]pyrrolidin-3-yl}oxy)-9-ethyl-8-(2-methylpyrimidin-5-yl)-9H-purine]	>10
CCn1ncc(-c2nc3c(O[C@H]4CCN(C(=O)C5CCC5)C4)ncnc3n2C)c1C [Compound 2-105, 6-{[(3S)-1-(cyclobutylcarbonyl)pyrrolidin-3-yl]oxy}-8-(1-ethyl-5-methyl-1H-pyrazol-4-yl)-9-methyl-9H-purine]	>10
CCn1ncc(-c2nc3c(O[C@H]4CCN(C(=O)C5CC(F)(F)C5)C4)ncnc3n2C)c1C [Compound 2-106, 6-({(3S)-1-[(3,3-difluorocyclobutyl)carbonyl]pyrrolidin-3-yl}oxy)-8-(1-ethyl-5-methyl-1H-pyrazol-4-yl)-9-methyl-9H-purine]	>10
CCn1c(-c2cnc(C)nc2)nc2c(O[C@H]3CCN(C(=O)C4CC4)C3)ncnc21 [Compound 2-107, 6-{[(3S)-1-(cyclopropylcarbonyl)pyrrolidin-3-yl]oxy}-9-ethyl-8-(2-methylpyrimidin-5-yl)-9H-purine]	>10
CCn1c(-c2cnc(C)nc2)nc2c(O[C@H]3CCN(C(=O)C4CC4C)C3)ncnc21 (stereo partly drawn) [Compound 2-108, 9-ethyl-6-({(3S)-1-[(2-methylcyclopropyl)carbonyl]pyrrolidin-3-yl}oxy)-8-(2-methylpyrimidin-5-yl)-9H-purine]	>10
CCn1c(-c2cnc(C)nc2)nc2c(O[C@H]3CCN(C(=O)c4ccn(C)n4)C3)ncnc21 [Compound 2-109, 9-ethyl-6-({(3S)-1-[(1-methyl-1H-pyrazol-3-yl)carbonyl]pyrrolidin-3-yl}oxy)-8-(2-methylpyrimidin-5-yl)-9H-purine]	>10

Compound	Relative Selectivity versus PI3Kalpha
CCn1c(-c2cnc(C)nc2)nc2c(O[C@H]3CCN(C(=O)[C@H]4C[C@H]5CC[C@@H]4C5)C3)ncnc21 [Compound 2-110, 6-({(3S)-1-[(1R,2S,4S)-bicyclo[2.2.1]hept-2-ylcarbonyl]pyrrolidin-3-yl}oxy)-9-ethyl-8-(2-methylpyrimidin-5-yl)-9H-purine]	>10
CCn1c(-c2cnc(C)nc2)nc2c(O[C@H]3CCN(C(=O)[C@@H](N)C(C)C)C3)ncnc21 [Compound 2-111, (2S)-1-[(3S)-3-{[9-ethyl-8-(2-methylpyrimidin-5-yl)-9H-purin-6-yl]oxy}pyrrolidin-1-yl]-3-methyl-1-oxobutan-2-amine]	>10
CCn1c(-c2cnc(C)nc2)nc2c(O[C@H]3CCN(C(=O)C4(N)CCC4)C3)ncnc21 [Compound 2-112, 1-{[(3S)-3-{[9-ethyl-8-(2-methylpyrimidin-5-yl)-9H-purin-6-yl]oxy}pyrrolidin-1-yl]carbonyl}cyclobutanamine]	>10
CCn1c(-c2cnc(C)nc2)nc2c(O[C@H]3CCN(C(=O)C4CCOC4)C3)ncnc21 (stereo partly drawn) [Compound 2-113, 9-ethyl-8-(2-methylpyrimidin-5-yl)-6-{[(3S)-1-(tetrahydrofuran-3-ylcarbonyl)pyrrolidin-3-yl]oxy}-9H-purine]	>10
CCn1c(-c2cnc(C)nc2)nc2c(O[C@H]3CCN(C(=O)CC(C)(C)N)C3)ncnc21 [Compound 2-114, 4-[(3S)-3-{[9-ethyl-8-(2-methylpyrimidin-5-yl)-9H-purin-6-yl]oxy}pyrrolidin-1-yl]-2-methyl-4-oxobutan-2-amine]	>10
CCn1c(-c2cnc(C)nc2)nc2c(O[C@H]3CCN(C(=O)C=C(C)C)C3)ncnc21 [Compound 2-116, 9-ethyl-6-{[(3S)-1-(3-methylbut-2-enoyl)pyrrolidin-3-yl]oxy}-8-(2-methylpyrimidin-5-yl)-9H-purine]	>10
CCn1c(-c2cnc(C)nc2)nc2c(O[C@H]3CCN(C(=O)C4[C@@H](C)[C@@H]4C)C3)ncnc21 (stereo partly drawn) [Compound 2-121, 6-({(3S)-1-[(2S,3S)-(2,3-dimethylcyclopropyl)carbonyl]pyrrolidin-3-yl}oxy)-9-ethyl-8-(2-methylpyrimidin-5-yl)-9H-purine]	>10
CCn1c(-c2cnc(C)nc2)nc2c(O[C@H]3CCN(C(=O)C4C(C)C4C)C3)ncnc21 (some centres unmarked) [Compound 2-128]	>10
CCn1c(-c2cnc(C)nc2)nc2c(O[C@H]3CCN(C(=O)C4CC(C)C4)C3)ncnc21 (stereo partly drawn) [Compound 2-129, 9-ethyl-6-({(3S)-1-[(3-methylcyclobutyl)carbonyl]pyrrolidin-3-yl}oxy)-8-(2-methylpyrimidin-5-yl)-9H-purine]	>10
CCn1c(-c2cnc(C)nc2)nc2c(O[C@H]3CCN(C(=O)c4cocn4)C3)ncnc21 [Compound 2-136, 9-ethyl-8-(2-methylpyrimidin-5-yl)-6-{[(3S)-1-(1,3-oxazol-4-ylcarbonyl)pyrrolidin-3-yl]oxy}-9H-purine]	>10
CCn1c(-c2cnc(C)nc2)nc2c(OC3(C)CCN(C(=O)C4CC4)C3)ncnc21 (centres unmarked) [Compound 2-141, 6-{[1-(cyclopropylcarbonyl)-3-methylpyrrolidin-3-yl]oxy}-9-ethyl-8-(2-methylpyrimidin-5-yl)-9H-purine]	>10
CCn1c(-c2ccc(OC(F)(F)F)cc2)nc2c(O[C@H]3CCN(C(=O)C4CC4)C3)ncnc21 [Compound 2-142, 6-{[(3S)-1-(cyclopropylcarbonyl)pyrrolidin-3-yl]oxy}-9-ethyl-8-[4-(trifluoromethoxy)phenyl]-9H-purine]	>10
CCn1c(-c2ccc(OC)nc2)nc2c(O[C@H]3CCN(C(=O)C4CC4)C3)ncnc21 [Compound 2-143, 6-{[(3S)-1-(cyclopropylcarbonyl)pyrrolidin-3-yl]oxy}-9-ethyl-8-(6-methoxypyridin-3-yl)-9H-purine]	>10
CCn1c(-c2ccnc(OC)c2)nc2c(O[C@H]3CCN(C(=O)C4CC4)C3)ncnc21 [Compound 2-144, 6-{[(3S)-1-(cyclopropylcarbonyl)pyrrolidin-3-yl]oxy}-9-ethyl-8-(2-methoxypyridin-4-yl)-9H-purine]	>10
CCn1c(-c2ccc(C(F)(F)F)nc2)nc2c(O[C@H]3CCN(C(=O)C4CC4)C3)ncnc21 [Compound 2-145, 6-{[(3S)-1-(cyclopropylcarbonyl)pyrrolidin-3-yl]oxy}-9-ethyl-8-[6-(trifluoromethyl)pyridin-3-yl]-9H-purine]	>10
CCn1c(-c2ccc(C(F)(F)F)cc2)nc2c(O[C@H]3CCN(C(=O)C4CC4)C3)ncnc21 [Compound 2-146, 6-{[(3S)-1-(cyclopropylcarbonyl)pyrrolidin-3-yl]oxy}-9-ethyl-8-[4-(trifluoromethyl)phenyl]-9H-purine]	>10
